Data: the supplement of paper PMC10307832

Columns and labels:
Assay in all cases: relative viability (nuclei count vs DMSO), 5 days (fraction); higher = more cells survive
Seliciclib + Decitabine = compound: CC[C@H](CO)Nc1nc(NCc2ccccc2)c2ncn(C(C)C)c2n1 [Seliciclib] + Nc1ncn([C@H]2C[C@H](O)[C@@H](CO)O2)c(=O)n1 [Decitabine] (partner 2 µM)
How it was run: (§1)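 Nuclei were stained with Hoechst during a one-step fixation (final 0.05% Triton X-100, 1% formaldehyde, 1 ug/ml Hoechst) carried out 5 days after dosing, then counted on 4× images. The cells, lung cancer lines in 1536-well plates, had been dosed by pin tool the day after seeding with one drug alone or a fixed anchor-drug dose plus five library-drug doses (not always all listed) in √10 steps. Relative viability is the nuclei count in treated wells divided by that in vehicle wells, and each value is the median of duplicate plates.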

Seliciclib + Foretinib = compound: CC[C@H](CO)Nc1nc(NCc2ccccc2)c2ncn(C(C)C)c2n1 [Seliciclib] + COc1cc2c(Oc3ccc(NC(=O)C4(C(=O)Nc5ccc(F)cc5)CC4)cc3F)ccnc2cc1OCCCN1CCOCC1 [Foretinib] (partner 0.25 µM)
How it was run: as §1

Seliciclib + Dasatinib = compound: CC[C@H](CO)Nc1nc(NCc2ccccc2)c2ncn(C(C)C)c2n1 [Seliciclib] + Cc1nc(Nc2ncc(C(=O)Nc3c(C)cccc3Cl)s2)cc(N2CCN(CCO)CC2)n1 [Dasatinib] (partner 0.075 µM)
How it was run: as §1

Seliciclib + Luminespib = compound: CC[C@H](CO)Nc1nc(NCc2ccccc2)c2ncn(C(C)C)c2n1 [Seliciclib] + CCNC(=O)c1noc(-c2cc(C(C)C)c(O)cc2O)c1-c1ccc(CN2CCOCC2)cc1 [Luminespib] (partner 0.01 µM)
How it was run: as §1

| Cell Line | relative viability (Seliciclib + Decitabine; first compound 0.08 µM) | relative viability (Seliciclib + Decitabine; first compound 0.253 µM) | relative viability (Seliciclib + Decitabine; first compound 0.8 µM) | relative viability (Seliciclib + Decitabine; first compound 2.53 µM) | relative viability (Seliciclib + Decitabine; first compound 8 µM) | relative viability (Seliciclib + Foretinib; first compound 0.08 µM) | relative viability (Seliciclib + Foretinib; first compound 0.253 µM) | relative viability (Seliciclib + Foretinib; first compound 0.8 µM) | relative viability (Seliciclib + Foretinib; first compound 2.53 µM) | relative viability (Seliciclib + Foretinib; first compound 8 µM) | relative viability (Seliciclib + Dasatinib; first compound 0.08 µM) | relative viability (Seliciclib + Dasatinib; first compound 0.253 µM) | relative viability (Seliciclib + Dasatinib; first compound 0.8 µM) | relative viability (Seliciclib + Dasatinib; first compound 2.53 µM) | relative viability (Seliciclib + Dasatinib; first compound 8 µM) | relative viability (Seliciclib + Luminespib; first compound 0.08 µM) | relative viability (Seliciclib + Luminespib; first compound 0.253 µM) | relative viability (Seliciclib + Luminespib; first compound 0.8 µM) | relative viability (Seliciclib + Luminespib; first compound 2.53 µM) | relative viability (Seliciclib + Luminespib; first compound 8 µM) |
| --- | --- | --- | --- | --- | --- | --- | --- | --- | --- | --- | --- | --- | --- | --- | --- | --- | --- | --- | --- | --- |
| HCC-366 | 0.357 | 0.297 | 0.333 | 0.414 | 0.297 | 0.917 | 0.97 | 0.786 | 0.93 | 0.762 | 0.565 | 0.376 | 0.57 | 0.381 | 0.473 | – | – | – | – | – |
| HCC-827 | 0.337 | 0.36 | 0.327 | 0.287 | 0.273 | 1.01 | 1.04 | 0.968 | 0.972 | 0.925 | 0.359 | 0.298 | 0.258 | 0.324 | 0.236 | 0.519 | 0.589 | 0.55 | 0.829 | 0.588 |
| HOP-62 | 0.199 | 0.177 | 0.223 | 0.235 | 0.253 | 1.17 | 1.18 | 1.1 | 1.17 | 0.993 | 0.661 | 0.58 | 0.578 | 0.603 | 0.653 | 0.863 | 0.933 | 0.919 | 1 | 0.851 |
| IA-LM | – | – | – | – | – | 1.18 | 1.48 | 1.04 | 1.1 | 0.925 | – | – | – | – | – | – | – | – | – | – |
| LC-2-ad | 0.752 | 0.95 | 0.717 | 0.812 | 0.721 | 0.949 | 0.966 | 0.865 | 0.747 | 0.852 | 0.638 | 0.802 | 0.63 | 0.326 | 0.459 | 0.895 | 1.02 | 0.988 | 0.985 | 0.834 |
| LCLC-97TM1 | 0.237 | 0.187 | 0.189 | 0.231 | 0.201 | 0.936 | 0.952 | 0.961 | 0.793 | 0.72 | 0.758 | 0.965 | 0.732 | 0.333 | 0.704 | 0.843 | 0.81 | 0.449 | 0.684 | 0.469 |
| LCLC-103H | 0.781 | 0.727 | 0.755 | 0.735 | 0.644 | 0.812 | 0.878 | 0.708 | 0.739 | 0.589 | 0.535 | 0.499 | 0.57 | 0.276 | 0.481 | 1.02 | 0.958 | 0.763 | 0.993 | 0.774 |
| LK-2 | 0.359 | 0.276 | 0.309 | 0.166 | 0.263 | 1.13 | 1.08 | 0.776 | 0.85 | 0.977 | 0.305 | 0.414 | 0.436 | 0.226 | 0.217 | 0.186 | 0.236 | 0.164 | 0.174 | 0.253 |
| LOU-NH91 | – | 0.795 | 0.784 | 0.785 | 0.693 | 0.9 | 0.904 | 0.885 | 0.905 | 0.739 | 0.493 | 0.515 | 0.535 | 0.413 | 0.427 | 0.318 | 0.332 | 0.293 | 0.305 | 0.276 |
